Test results published in US7135581B2, “Antiangiogenic agents” (Entremed, Inc., priority 2000, dated 2006).
Where two headings read alike, the source gives them in different places. Blank lines part the entries; values can stand above or below the compound they belong to.

Experiments:
[1] = system: HUVEC and MDA-MB-231 cells; test: in vitro antiproliferative screening, endothelial versus tumor cells; assay type: cell-based, human; details: for difference between inhibition of tumor cells and of endothelial cell proliferation (selectivity): MDA-MB-231 versus HUVEC; for antiproliferative activity in vitro (in words): cell line not specified
Source text: Compounds with no chain or with variable methylene chain lengths (1–4) were synthesized by replacing hydroxyl group at position-17 of D-ring of 2ME2 to block estrone formation or glucuronation. Similarly several analogs of 17-deoxyestrone with modification at position-2 were synthesized to block the both glucuronation and hydrolysis of the methoxy group to the hydroxyl. For these analogs data will be presented on the synthesis and preliminary in vitro screening in human umbilical vein endothelial cells (HUVEC) and breast cancer tumor MDA-MB-231 cells for antiproliferative activity, and in MCF-7 tumor cancer cells for estrogenic activity.
(§1) In order to assess the biological activity of modifications at position 16, the anti-proliferative activity of these analogs was evaluated on human umbilical vein endothelial cells (HUVEC) and breast carcinoma cell line, MDA-MB-231 as models for the anti-angiogenic and anti-tumor activity, respectively.

[2] = system: HUVEC cells; test: HUVEC in vitro cellular proliferation inhibition (BrdU, bFGF); assay type: cell-based, human
Experimental: HUVEC cells were grown in EGM (Clonetics).
HUVEC cells were plated at 5000 cells/ml in 96-well plates. After allowing the cells to attach overnight, the cells were washed with PBS and incubated in the absence of growth factor for 24 h (EBM, 2% FCS, Clonetics). Cells were treated with increasing concentrations of drug in EBM containing 2% FCS and 10 ng/ml bFGF for 48 h at 37° C. Drug preparation, volumes added and BrdU proliferation assay were performed as indicated above.
as §1, with “2-Methoxyestradiol is a potent anti-angiogenic and anti-tumor agent. In” for “In”

[3] = system: chick embryo chorioallantoic membrane; test: chick embryo chorioallantoic membrane (CAM) assay; assay type: in vivo; details: 100 μg disk, after 48 hours
Experimental: Anti-proliferative activity is evaluated in situ by testing the ability of an improved estradiol derivative to inhibit the proliferation of new blood vessel cells (angiogenesis). A suitable assay is the chick embryo chorioallantoic membrane (CAM) assay described by Crum et al. Science 230:1375 (1985). See also, U.S. Pat. No. 5,001,116, hereby incorporated by reference, which describes the CAM assay. Briefly, fertilized chick embryos are removed from their shell on day 3 or 4, and a methylcellulose disc containing the drug is implanted on the chorioallantoic membrane. The embryos are examined 48 hours later and, if a clear avascular zone appears around the methylcellulose disc, the diameter of that zone is measured.

[4] = system: MDA-MB-231 human breast carcinoma cells; test: MDA-MB-231 in vitro cellular proliferation inhibition (BrdU); assay type: cell-based
Experimental: MDA-MB-231 human breast carcinoma cells were grown in DMEM containing 10% FCS (Hyclone Laboratories, Logan Utah) and supplemented with 2 mM L-Glutamine, 100 units/ml penicillin, 100 μg/ml streptomycin (Irvine Scientific, Santa Anna, Calif.).
MDA-MB-231 cells were plated at 5000 cells/ml in 96-well plates. After allowing the cells to attach overnight, the appropriate fresh media were applied containing differing concentrations of 2-ME2 or derivatives thereof, as described below. Drug was dissolved in DMSO (Sigma, St. Louis, Mo.) and added to the wells in a volume of 200 μl. Cells were incubated for two days at 37° C.; at 32 h BrdU was added. BrdU cell proliferation assay (a nucleotide analogue that is incorporated into DNA) was performed as described by the manufacturer (Roche). Each condition was prepared in triplicate and the experiments were carried out a minimum of two times. Results presented are means +/− SE.

[5] = system: MCF7 cells; test: MCF7 estrogen-dependent proliferation assay (cell counting); assay type: cell-based; details: for MCF7 Fold stimulation: estrogen-dependent proliferation
Experimental: MCF7 cells, an estrogen dependent breast carcinoma cell line, were maintained in DMEM/F12 (1:1) containing 10% (v/v) fetal bovine serum (Hyclone Laboratories, Logan, Utah) and 1×antibiotic-antimytotic. MCF7 cells were used between passage 60 and passage 90. For MCF7 estrogen-dependent proliferation assay the cells were seeded in complete media at 20–30,000 cells/well in a 24 well plate. After allowing the cells to adhere overnight the seeding density was determined by cell counts. Cells were washed with PBS (37° C.) and starved by placing them in IMEM-phenol red free media containing 2% charcoal-dextran fetal bovine-stripped serum (Georgetown University) and 1×antibiotic-antimitotic. After 3 days of starvation, cells were treated with or without increasing concentrations of compounds, replacing the media every 2–3 days and counted after 8 or 10 days of treatment. Proliferation was measured by cell counting using a Coulter Z1 cell counter (Coulter Corporation, Hialeah, Fla.). Each condition was done in triplicate.

[6] = system: vascular endothelial cell proliferation; details: cited from earlier work
[7] = Table 4, dehydrogenated/substituted 2ME2 derivatives
[8] = Table 4, dehydrogenated/substituted 2ME2 derivatives, read-out: MDA-MB-231 (IC50 μM)
[9] = Homo sapiens, HUVEC, Table 2, 2 substituted E2 derivatives
[10] = Homo sapiens, MDA-MB-231, Table 2, 2 substituted E2 derivatives, read-out: MDA-MB-231 (IC50 μM)

Compound: 16β-(hydroxymethyl)estra-1,3,5(10)-triene-3,17β-diol [Table 3, Entry 6]
- difference between inhibition of tumor cells and of endothelial cell proliferation (selectivity) [1]: 10 fold

- IC50 ([4]; Table 1, 17 substituted 2ME2 derivatives, means +/− SE, read-out: MDA-MB-231 (IC50 μM)): 0.5 ± 0.05 µM
- IC50 ([4]; Table 2, 2 substituted E2 derivatives, read-out: MDA-MB-231 (IC50 μM)): 0.5 µM
- IC50 ([4]; Table 3, 16 substituted 2ME2 derivatives, read-out: MDA-MB-231 (IC50 μM)): 0.5 ± 0.05 µM
- IC50 [4, 8]: 0.5 ± 0.05 µM
Compound: COc1cc2c(cc1O)CC[C@@H]1[C@@H]2CC[C@]2(C)[C@@H](O)CC[C@@H]12 [2-Methoxyestradiol, reference compound]
- IC50 ([2]; Table 1, 17 substituted 2ME2 derivatives): 0.66 ± 0.02 µM
- IC50 ([2]; Table 2, 2 substituted E2 derivatives): 0.66 µM
- IC50 ([2]; Table 3, 16 substituted 2ME2 derivatives): 0.66 ± 0.02 µM
- IC50 [2, 7]: 0.66 ± 0.02 µM
- inhibition of cell mitosis and growth of new blood vessels [3]: inhibit cell mitosis and the growth of new blood vessels
- estrogenic activity, proliferation in estrogen dependant MCF-7 cells (in words) [5]: not estrogenic over a wide range of concentrations
- MCF7 Fold stimulation ([5]; Table 1): 1.75
- MCF7 Fold stimulation ([5]; Table 2): 1.75
- MCF7 Fold stimulation ([5]; Table 3): 1.75

Compound: COc1cc2c(cc1O)CC[C@@H]1C2=CC[C@]2(C)[C@@H](O)CC[C@@H]12 [2-methoxy-estra-1,3,5(10)9(11)-tetraene-3,17β-diol]
- IC50 [2, 7]: 0.25 µM
- IC50 [4, 8]: 0.45 µM

Compound: CO[C@@H]1[C@H](OC(=O)NC(=O)CCl)CC[C@]2(CO2)[C@H]1[C@@]1(C)O[C@@H]1CC=C(C)C [AGM-1470]
- half-maximal inhibition of vascular endothelial cell proliferation at lower concentration than tumor cell proliferation [6]: 4 logs

Compound: COc1cc2c(cc1OC(C)=O)CCC1C2CC[C@@]2(C)C1CC[C@@H]2OC(C)=O (stereo partly drawn) [Entry 6]
- IC50 ([2]; Homo sapiens, HUVEC, Table 1, 17 substituted 2ME2 derivatives): 3.6 ± 2 µM
- IC50 ([4]; Homo sapiens, MDA-MB-231, Table 1, 17 substituted 2ME2 derivatives, means +/− SE, read-out: MDA-MB-231 (IC50 μM)): 0.59 ± 0.15 µM

Compound: COc1cc2c(cc1O)CC[C@@H]1[C@@H]2CC[C@]2(C)CCC[C@@H]12 [Table 1, Entry 3, 2-methoxyestra-1,3,5(10)-triene-3-ol]
- antiproliferative activity in vitro (in words) ([1]; listed as 2-Methoxy-17-deoxyestrone): equal or better antiproliferative activity than 2ME2
- antiproliferative activity in vitro (in words) ([1]; listed as dehydroxy derivative): in vitro profile analogous to 2-methoxyestradiol

Compound: COc1cc2c(cc1O)CC[C@@H]1[C@@H]2CC[C@]2(C)[C@@H](C)CC[C@@H]12 [Table 1, Entry 8, 2-methoxy-17β-methylestra-1,3,5(10)-triene-3-ol]
- antiproliferative activity in vitro (in words) [1]: equal or better antiproliferative activity than 2ME2

Compound: CC[C@H]1CC[C@H]2[C@@H]3CCc4cc(O)c(OC)cc4[C@H]3CC[C@]12C [Table 1, Entry 13, 2-methoxy-17β-ethylestra-1,3,5(10)-triene-3-ol]
- antiproliferative activity in vitro (in words) [1]: equal or better antiproliferative activity than 2ME2

Compound: CC(=O)c1cc2c(cc1O)CC[C@@H]1[C@@H]2CC[C@]2(C)[C@@H](O)CC[C@@H]12 [Table 2, Entry 2, 2-acetylestra-1,3,5(10)-triene-3,17β-diol]
- antiproliferative activity in HUVEC / endothelial cells (in words) [2]: poor activity
- activity in breast tumor MDA-MB-231 cells (in words) [4]: good activity

Compound: C[C@]12CC[C@@H]3c4cc(C=O)c(O)cc4CC[C@H]3[C@@H]1CC[C@@H]2O [Table 2, Entry 3, 2-formylestra-1,3,5(10)-triene-3,17β-diol]
- activity in breast tumor MDA-MB-231 cells (in words) [4]: poor activity

Compound: C[C@]12CC[C@@H]3c4cc(CO)c(O)cc4CC[C@H]3[C@@H]1CC[C@@H]2O [Table 2, Entry 4, 2-(hydroxymethyl)estra-1,3,5(10)-triene-3,17β-diol]
- activity in breast tumor MDA-MB-231 cells (in words) [4]: poor activity

Compound: C[C@]12CC[C@@H]3c4cc(N=[N+]=[N-])c(O)cc4CC[C@H]3[C@@H]1CC[C@@H]2O [Table 2, Entry 17, 2-Azidoestra1,3,5(10)-triene-3,17β-diol]
- antiproliferative activity in vitro (in words) [1]: retained considerable antiproliferative activity
- IC50 ([4]; Homo sapiens, MDA-MB-231, read-out: MDA-MB-231 (IC50 μM)): 13.3 µM

Compound: CCOc1cc2c(cc1O)CC[C@@H]1[C@@H]2CC[C@]2(C)[C@@H](O)CC[C@@H]12 [Table 2, Entry 18, 2-ethoxyestra-1,3,5(10)-triene3,17β-diol]
- IC50 [2, 9]: 0.06 µM
- IC50 [4, 10]: 0.179 µM

Compound: C[C@@]12CCC[C@H]1[C@@H]1CCc3cc(O)ccc3[C@H]1CC2 [Table 2, Entry 19, estra-1,3,5(10)-triene-3-ol]
- IC50 [2, 9]: 8.66 µM
- IC50 [4, 10]: 33.9 µM

Compound: COc1cc2c(cc1O)CC[C@@H]1[C@@H]2CC[C@]2(C)[C@@H](O)[C@H](C)C[C@@H]12 [Table 3, Entry 2, 2-methoxy-16α-methylestra-1,3,5(10)-triene-3,17β-diol]
- activity in MDA-MB-231 compared to 2-methoxyestradiol (in words) [4]: better activity than 2-methoxyestradiol

Compound: COc1cc2c(cc1O)CC[C@@H]1[C@@H]2CC[C@]2(C)[C@@H](O)[C@@H](C)C[C@@H]12 [Table 3, Entry 3, 2-methoxy-16β-methylestra-1,3,5(10)-triene-3,17β-diol]
- drop in activity in MDA-MB-231 compared to 2-methoxyestradiol [4]: about 5 fold

Compound: CCC1C[C@H]2[C@@H]3CCc4cc(O)c(OC)cc4[C@H]3CC[C@]2(C)[C@H]1O (stereo partly drawn) [Table 3, Entry 4, 2-methoxy-16-ethylestra-1,3,5,(10)-triene-3,17β-diol]
- inhibition of HUVEC cell proliferation compared to 2-methoxyestradiol (in words) [2]: about equipotent to 2-methoxyestradiol
- drop in activity in MDA-MB-231 compared to 2-methoxyestradiol [4]: ~3 fold

Compound: CCC[C@@H]1C[C@H]2[C@@H]3CCc4cc(O)c(OC)cc4[C@H]3CC[C@]2(C)[C@H]1O [Table 3, Entry 7, 2-methoxy-16α-propaneestra-1,3,5(10)-triene-3,17β-diol]
- difference between inhibition of tumor cells and of endothelial cell proliferation (selectivity) [1]: more than ten-fold less active
- antiproliferative activity in HUVEC / endothelial cells (in words) [2]: good activity
